“Also recorded” adds a separate entry of the source. Like-named read-outs stand apart in the source and are kept apart here.
Tests used:
[1] = system: HR+/HER2− advanced breast cancer; assay type: in vivo, patients; settings: for Median PFS: updated analysis
[2] = system: patients with HR+/HER2− advanced breast cancer; experiment: MONALEESA-7 adverse events; assay type: in vivo; settings: adverse event of special interest
[3] = Steady-state plasma pharmacokinetics; assay type: in vivo, patients
[4] = system: HR+/HER2− advanced breast cancer; settings: cited from earlier work
[5] = system: plasma estradiol; experiment: Plasma estradiol concentration, baseline vs cycle 3 day 15; assay type: in vivo, patients
[6] = patients less than 40 years of age

## CN(C)C(=O)c1cc2cnc(Nc3ccc(N4CCNCC4)cn3)nc2n1C1CCCC1 [Ribociclib, ribociclib]
[1]; Age: <40 years
  mOS (median overall survival): 51.3 months
[1]; Age: ≥40 years
  mOS (median overall survival): 58.8 months
[1]; All patients
  Increase in survival over the MONALEESA-7 placebo arm: 22%
  Kaplan–Meier estimated OS at 48 months (survival rate at 4 years): 60%
  Median chemotherapy-free survival (CFS): 42.4 months
  PFS2 HR (95% CI) vs placebo: 0.68
  PFS2 Median: 44.2 mo
  Patients who had died at data cut-off: 42%
  Patients who received chemotherapy as a subsequent therapy at any time: 43%
  Patients with disease progression on subsequent therapy or death (PFS2 events): 53%
  Patients with receipt of chemotherapy or death: 57%
  Survival rate at 54 months: 53%
[1]; All patients, 58.7 vs 48.0 months
  Improvement in OS over ET alone: 10.7 months
[1]; All patients, median follow-up 53.5 months
  mOS (median overall survival): 58.7 months
[1]; Chemotherapy (metastatic): Yes
  mOS (median overall survival): 47.2 months
[1]; Disease-free interval: De novo
  mOS (median overall survival): not reached
[1]; Endocrine combination partner: NSAI and goserelin
  mOS (median overall survival): 58.7 months
[1]; Endocrine combination partner: Tamoxifen and goserelin
  mOS (median overall survival): not estimable
[1]; Patients receiving an NSAI
  Patients who died: 43%
[1]; Patients receiving tamoxifen
  Patients who died: 39%
[1]; difference in median chemotherapy-free survival
  Delay in chemotherapy vs placebo, without censoring: 16.0 month
[1]; difference in median time to first chemotherapy
  Delay in chemotherapy vs placebo, censoring for death: 14.1 month
[1]; in vivo
  Median time to first chemotherapy (TTC): 50.9 months
[1]; overall
  Duration of first subsequent antineoplastic therapy after discontinuation of study treatment: 7.5 months
[1]; [6]
  Reduction in the risk of death: 35%
  Median PFS: 29.7 months
[1]; patients ≥40 years of age
  Median PFS: 26.4 months
[2]
  Hepatobiliary toxicity, grade 3 or 4: 12%
  Neutropenia, grade 3 or 4: 65%
  Prolonged QT interval, grade 3 or 4: 2%
[3]; in vivo
  Drug–drug interaction between ribociclib and NSAI partner: No drug–drug interactions; also recorded: no apparent drug–drug interaction
[4]; median follow-up 34.6 months
  Median OS, prespecified second interim (final) analysis: not reached
[4]; primary analysis
  Median PFS (primary endpoint): 23.8 months
[5]; 86 of 90 patients
  Patients with estradiol below the minimum detectable limit (0.5 pg/mL): 96%
[5]; patients who received an NSAI
  Mean percentage decrease in plasma estradiol concentration compared with baseline: 89%

## CC/C(=C(\c1ccccc1)c1ccc(OCCN(C)C)cc1)c1ccccc1 [Tamoxifen, tamoxifen]
[3]; tamoxifen 20 mg
  Exposure with ribociclib versus placebo: approximately 2 times

Source: article PMC9377723 (Clinical Cancer Research, 2021)
